Results: patent US20230277533A1, “THERAPEUTIC COMBINATIONS COMPRISING UBIQUITIN-SPECIFIC-PROCESSING PROTEASE 1 (USP1) INHIBITORS AND POLY (ADP-RIBOSE) POLYMERASE (PARP) INHIBITORS” (KSQ Therapeutics, Inc., priority 2020, published 2023)
Like-named read-outs stand apart in the source and are kept apart here.

Tests used:
Test in all cases: Colony formation (CFU) assay
Format in all cases: cell-based
647V = details: Homo sapiens, bladder
Method: (§1) In vitro experiments were conducted using the colony formation unit (CFU) assay on various cell lines. The CFU assay involved first establishing what cell plating density enabled the development of clearly interspersed colonies on a six-well plate when left to grow for around 14 days. […] Media was changed on day 8 containing appropriate concentrations of DMSO, USP1 inhibitor, Niraparib, or Olaparib. At or around day 14 when clearly interspersed colonies were visible in the DMSO treated wells, the cells were fixed and stained using 0.1% crystal violet in 10% ethanol for 20 minutes at room temperature. The plates were imaged then the amount of crystal violet stain in each well was quantified by extracting the crystal violet into 10% acetic acid and the absorbance measured at 565 nm.
(§2) IC50 values were calculated by fitting a two-parameter hill equation to the dose-response measurements. Non-linear-least-squares was used to find parameter values that minimize the squared error of the model fit to measured dose response. Non-linear-least-squares estimation was performed using the minpack.lm R package, version 1.2-1. Bliss synergy scores were calculated using the synergyfinder R package version 1.6.1.

CAOV3 = details: Homo sapiens, Caov-3; CAOV3, ovary
Method: as §1, §2

CAPAN2 = details: Homo sapiens, Capan-2; CAPAN2, pancreas
Method: as §1, §2

COV504 = details: COV504, ovary
Method: as §1, §2

G292CLONEA141B1 = details: G292CLONEA141B1, bone
Method: as §1, §2

HBCx13B = details: breast
Method: as §1, §2

HCC1937 = details: Homo sapiens; HCC1937, breast
Method: as §1, §2

HCC202 = details: HCC202, breast
Method: as §1, §2

HEC151 = details: HEC151, endometrial
Method: as §1, §2

HMC18 = details: HMC18, breast
Method: as §1, §2

HS695T = details: Homo sapiens, Hs 695T, skin
Method: as §1, §2

HS934T = details: melanoma
Method: as §1, §2

HSC3 = details: Homo sapiens, HSC-3; HSC3, head and neck
Method: as §1, §2

HUO3N1 = details: HUO3N1, bone
Method: as §1, §2

KP3 = tested on: KP3
Method: as §1, §2

KU1919 = details: Homo sapiens, KU-19-19; KU1919, bladder
Method: as §1, §2

NCIH1573 = details: Homo sapiens, NCI-H1573; NCIH1573, lung
Method: as §1, §2

NCIH1648 = details: Homo sapiens, NCI-H1648; NCIH1648, lung
Method: as §1, §2

NCIH1693 = details: Homo sapiens, NCI-H1693; NCIH1693, lung
Method: as §1, §2

NCIH1838 = details: Homo sapiens, NCI-H1838; NCIH1838, lung
Method: as §1, §2

OVMANA = details: ovary
Method: as §1, §2

PECAPJ49 = details: PECAPJ49, head and neck
Method: as §1, §2

PK8 = details: PK8, pancreas
Method: as §1, §2

QGP1 = details: QGP-1; QGP1, pancreas
Method: as §1, §2

RCM1 = details: Homo sapiens, RCM-1; RCM1, colon
Method: as §1, §2

RL952 = details: Homo sapiens, RL95-2; RL952, uterus
Method: as §1, §2

RT11284 = details: Homo sapiens, RT112/84; RT11284, bladder
Method: as §1, §2

RT112 = details: Homo sapiens, RT-112; RT112, bladder
Method: as §1, §2

SJSA1 = details: Homo sapiens, SJSA-1; SJSA1, bone
Method: as §1, §2

SKMEL24 = details: Homo sapiens, SK-MEL-24; SKMEL24, skin
Method: as §1, §2

SKOV3_OR1a1null = details: ovary
Method: as §1, §2

SNGM = details: uterus
Method: as §1, §2

SNU407 = details: SNU-407; SNU407, colon
Method: as §1, §2

SNUC4 = details: Homo sapiens, SNU-C4; SNUC4, colon
Method: as §1, §2

SUM149PT = details: Homo sapiens, breast
Method: as §1, §2

T226 = details: T226, breast
Method: as §1, §2

TGBC1TKB = details: biliary tract
Method: as §1, §2

U2OS = details: Homo sapiens, bone
Method: as §1, §2

SMILES | IC50 (647V) [nM] | IC50 (CAOV3) [nM] | IC50 (CAPAN2) [nM] | IC50 (COV504) [nM] | IC50 (G292CLONEA141B1) [nM] | IC50 (HBCx13B) [nM] | IC50 (HCC1937) [nM] | IC50 (HCC202) [nM] | IC50 (HEC151) [nM] | IC50 (HMC18) [nM] | IC50 (HS695T) [nM] | IC50 (HS934T) [nM] | IC50 (HSC3) [nM] | IC50 (HUO3N1) [nM] | IC50 (KU1919) [nM] | IC50 (NCIH1573) [nM] | IC50 (NCIH1648) [nM] | IC50 (NCIH1693) [nM] | IC50 (NCIH1838) [nM] | IC50 (OVMANA) [nM] | other results
COc1ncnc(C2CC2)c1-c1ncc2cnn(Cc3ccc(-c4nc(C(F)(F)F)cn4C)cc3)c2n1 [Formula II, 6-(4-cyclopropyl-6-methoxypyrimidin-5-yl)-1-(4-(1-methyl-4-(trifluoromethyl)-1H-imidazol-2-yl)benzyl)-1H-pyrazolo[3,4-d]pyrimidine] | 33.9 | 27.8 | > 300 | 6.63 | > 300 | > 300 | > 300 | > 300 | > 300 | > 300 | > 300 | > 300 | > 300 | > 300 | 25 | 227 | > 300 | 12.7 | > 300 | > 300 | IC50 (KP3): > 300 nM; IC50 (PECAPJ49): > 300 nM; IC50 (PK8): > 300 nM; IC50 (QGP1): > 300 nM; IC50 (RCM1): > 300 nM; IC50 (RL952): > 300 nM; IC50 (RT11284): > 300 nM; IC50 (RT112): > 300 nM; IC50 (SJSA1): > 300 nM; IC50 (SKMEL24): > 300 nM; IC50 (SKOV3_OR1a1null): > 300 nM; IC50 (SNGM): > 300 nM; IC50 (SNU407): > 300 nM; IC50 (SNUC4): > 300 nM; IC50 (SUM149PT): > 300 nM; IC50 (T226): > 300 nM; IC50 (TGBC1TKB): > 300 nM; IC50 (U2OS): > 300 nM
NC(=O)c1cccc2cn(-c3ccc([C@@H]4CCCNC4)cc3)nc12 [Niraparib, niraparib, reference compound] | 96.7 | 241 | > 300 | 4.17 | > 300 | > 300 | 244 | 103 | > 300 | > 300 | 36.9 | > 300 | > 300 | > 300 | 181 | 15.2 | > 300 | > 300 | > 300 | > 300 | IC50 (KP3; KP3, pancreas, read-out: IC50): > 300 nM; IC50 (PECAPJ49): > 300 nM; IC50 (PK8): > 300 nM; IC50 (QGP1): > 300 nM; IC50 (RCM1): > 300 nM; IC50 (RL952): > 300 nM; IC50 (RT11284): > 300 nM; IC50 (RT112): > 300 nM; IC50 (SJSA1): > 300 nM; IC50 (SKMEL24): > 300 nM; IC50 (SKOV3_OR1a1null): > 300 nM; IC50 (SNGM): > 300 nM; IC50 (SNU407): 72.8 nM; IC50 (SNUC4): > 300 nM; IC50 (SUM149PT): 135 nM; IC50 (T226): > 300 nM; IC50 (TGBC1TKB): > 300 nM; IC50 (U2OS): > 300 nM
